This note sets out measurements from patent US20230390366A1, “PARAPHARMACEUTICAL OR PHARMACEUTICAL COMPOSITION ADMINISTRABLE TO A LIVING BEING, PREFERABLY A HUMAN BEING, COMPRISING AT LEAST ONE ENZYME FOR THE TREATMENT AND/OR PREVENTION OF BACTERIAL INFECTIONS INVOLVING BIOFILM FORMATION” (priority 2020, published 2023).

Type in all cases: cell-based
Series [1] relates to S. aureus ATCC33591 biofilm. In words: Curative enzyme treatment followed by 24 hours vancomycin, biofilm in 96-well plates, viability (resazurin) and biomass (crystal violet). The note with it: vancomycin 10 mg and 20 mg/L, absence of enzyme treatment. The method, then:
For the tests described below, vancomycin was used as the antibiotic molecule. The antibiotic was added at different concentrations in TGN for 24 hours at 37° C. on the biofilms pretreated with the enzyme composition according to the invention (see the below sections). The biofilm was then washed before carrying out the biomass and viability measurements.
In this model, cell viability was measured indirectly, by measuring the metabolism of cells in the biofilm. Indeed, viability was quantified by tracking changes in the colour of resazurin (7-Hydroxy-3H-phenoxazin-3-one 10 oxide) (prestoBlue, ThermoFisher). […] The quantification of resorufin was carried out by measuring fluorescence. […]
The experimental method for cultivating the strains and forming the biofilm is described in point 1.1 of this document. […] The biofilms were then washed 2× with PBS (200 μl) before biomass and viability were analysed. Biomass was quantified via the CV staining technique following the procedure described in point 1.1. […] The plate containing all the samples was then incubated for 24 hours at 37° C. in the spectraMax M3 plate reader. Fluorescence was measured every 10 minutes for 18 hours (excitation 560 nm, emission 590 nm). […]
A general note: The colour change of resazurin is a common sign of viable cells or microbes.

The subject of series [2] is S. aureus biofilm. In words: Curative enzyme treatment followed by 24 hours vancomycin, biofilm on titanium coupons, viability by CFU counting. Conditions: vancomycin 20 mg/L. From the text: (§1) Two different biofilm models were used: static biofilm in 96-well plate (as described previously) and biofilm on titanium coupons. Titanium was chosen because it is a material widely used in the manufacture of implants (e.g. orthopaedic prostheses, dental implants, heart valves, pacemakers, etc.). The techniques used to measure viability differ between the two models and are detailed below.
(§2) In this model, viability was quantified after detachment and homogenisation of the biofilm via the technique of spreading and counting cells on a TSA culture media (VWR).
(§3) Titanium coupons (n=3 for each condition) were placed in the wells of a 12-well plate and incubated at 37° C. with agitation (50 rpm) for 24 hours in 3 ml of bacterial inoculum at an OD of 0.005 (10^6 CFU/ml) in order to allow biofilm to form. The coupons were then washed 2× with PBS (2 ml) and treated for 1 hour at 37° C. with the composition according to the invention or the solution without enzymes (CT−=20 mM TrisHCl pH7). The coupons were then washed twice with PBS (2 ml) and reincubated in 750 μl of TGN containing 0 or 20 mg/L of vancomycin for 24 hours at 37° C. with agitation (50 rpm). After two washes with PBS (2 ml), the biofilm was detached and homogenised in 2 ml of PBS. Different dilutions were carried out (from 10 to 10) and 10 μl of each dilution was spread on a TSA dish. Colonies (CFU) were counted after 18 hours of incubation at 37° C.
(§4) To analyse the effect of the compositions according to the invention, a statistical test (one-way ANOVA and Tukey's post-hoc test) was carried out. This test compares the fluorescence (viability) or absorbance (biomass) values of the CT− negative control (=treatment with buffer without enzymes) and of the biofilms treated with the enzyme compositions, at each vancomycin concentration. The difference is significant when the pvalue of the statistical test is less than or equal to 0.05 (* used on graphs). When this is specified in the comparative examples, the activity of the various enzyme compositions is compared (one-way ANOVA and post-hoc Tukey test).

Series [3] relates to S. epidermidis ATCC35984 biofilm. Described as above. Conditions: vancomycin 20 mg/L, absence of enzyme treatment (CT−, TGN).
Description: as §1, §2, §3, §4

Series [4] deals with S. aureus biofilm. In words: Curative enzyme treatment (1 hour, 37° C.) of preformed 24-hour biofilm in 96-well plates, residual biomass by crystal violet staining (A570). The note with it: S. aureus ATCC33591 and 7832; 100 U/ml in TGN; vs CT−; 1 biofilm/3 of the panel significantly reduced. Here is the method: The effect of a treatment with the composition according to the invention on the biomass of biofilms was studied in a static model in 96-well plates. The curative enzyme treatment was carried out on a preformed 24-hour biofilm. To test its efficacy in reducing the biomass of biofilms, the composition according to the invention was brought into contact with the biofilm for 1 hour at 37° C. The enzyme solution was then removed, and the detached biomass was removed via rinsing steps. Crystal violet (CV) dye was then used to quantify residual biomass. […] CV staining was quantified via spectrophotometry by measuring the absorbance at 570 nm.
The different strains of S. aureus and P. aeruginosa (Table 1) were inoculated in 5 ml of TGN culture medium (Tryptic Soy Broth VWR+1% glucose+2% NaCl) from 20 μl of a stored glycerol stock at −80° C. […] The plates were then emptied, the biofilm was washed 2× with 200 μl PBS pH 7.5 (Sigma) and dried at 60° C. for 18 h before the biomass was analysed.
To quantify the residual biomass, a 1% CV solution (Sigma) was added to the biofilms at room temperature for 15 min. […] The dye attached to the biofilm was then detached and dissolved with 66% […] and absorbance at 570 nm (A570) was measured in a SpectraMax M3 multimode reader. This absorbance value corresponds to the biomass of the biofilm. […]

For series [5], the system named is S. epidermidis ATCC35984 biofilm. The series is described as above. Conditions: 100 U/ml in TGN, vs CT−, 1 biofilm/3 of the panel significantly reduced.
The next series has as its system MG63 osteoblasts. Here is the method: Cytotoxicity tests were performed on MG63 osteoblasts and other cell types.
Series [6] deals with biofilms comprising Candida albicans. In words: Enzyme treatment of biofilms comprising Candida albicans followed by antifungal/antibiotic. The note with it: Candida albicans alone or with S. aureus and/or E. coli; enzymes 30 minutes or 1 hour, then Caspofungin (and Moxifloxacin or Meropenem) 24 hours. From the text:
The inventors then attempted to treat biofilms comprising Candida albicans, either in monoculture or in complex biofilm models comprising Candida albicans and prokaryotes. Different strains of Candida albicans were used: the ATCC24433 strain, as well as strains isolated from orthopaedic prosthesis infections. Subtilisin (protease from Bacillus licheniformis) and lyticase (from Arthrobacter luteus or Bacillus subtilis) were obtained at Sigma. The other enzymes are those used above.
The antifungal drug Caspofungin (Merck Sharp & Dohme) and, for complex biofilms additionally comprising one or more prokaryotes, the antibiotics Moxifloxacin HCl (Bayer) or Meropenem (Mylan) were used (24 hours of treatment, after the application of enzymes).

Turning to `CN[C@H](CC(C)C)C(=O)N[C@H]1C(=O)N[C@@H](CC(N)=O)C(=O)N[C@H]2C(=O)N[C@H]3C(=O)N[C@H](C(=O)N[C@H](C(=O)O)c4cc(O)cc(O)c4-c4cc3ccc4O)[C@H](O)c3ccc(c(Cl)c3)Oc3cc2cc(c3O[C@@H]2O[C@H](CO)[C@@H](O)[C@H](O)[C@H]2O[C@H]2C[C@](C)(N)[C@H](O)[C@H](C)O2)Oc2ccc(cc2Cl)[C@H]1O` [vancomycin], the “effect on viability of the biofilm (in words)” value was “only very slightly reduces” in series [1] (20 mM TrisHCl pH7) and “does not reduce” in series [1] (TGN). The “effect on viability in biofilm (in words)” value in the series on S. aureus biofilm [2] (S. aureus ATCC33591, titanium coupons, absence of enzyme treatment (CT−, Tris-HCl)) is reported as “does not decrease viability in biofilm”; with S. aureus biofilm [2] (S. aureus ATCC33591 and 144-20, absence of enzyme treatment (CT−, TGN)) it was “does not significantly reduce viability in biofilm”; in series [3], “does not significantly reduce viability in biofilm”.

B1: CE1: RNase I (Escherichia coli endoribonuclease, class EC4.6.1) 100 U/ml in TGN (protein, UniProt P21338 24-268, looked up)
Ribonuclease I: LALQAKQYGDFDRYVLALSWQTGFCQSQHDRNRNERDECRLQTETTNKADFLTVHGLWPGLPKSVAARGVDERRWMRFGCATRPIPNLPEARASRMCSSPETGLSLETAAKLSEVMPGAGGRSCLERYEYAKHGACFGFDPDAYFGTMVRLNQEIKESEAGKFLADNYGKTVSRRDFDAAFAKSWGKENVKAVKLTCQGNPAYLTEIQISIKADAINAPLSANSFLPQPHPGNCGKTFVIDKAGY
Turning to B1, the “effect on the decrease in the biomass percentage of the biofilms (in words)” value (with S. aureus biofilm [4]; in series [5]) was “little or no significant effect” in each case.

B2: subtilisin: protease from Bacillus licheniformis (Sigma) (protein, UniProt P00780 106-379, looked up)
Subtilisin Carlsberg: AQTVPYGIPLIKADKVQAQGFKGANVKVAVLDTGIQASHPDLNVVGGASFVAGEAYNTDGNGHGTHVAGTVAALDNTTGVLGVAPSVSLYAVKVLNSSGSGSYSGIVSGIEWATTNGMDVINMSLGGASGSTAMKQAVDNAYAKGVVVVAAAGNSGSSGNTNTIGYPAKYDSVIAVGAVDSNSNRASFSSVGAELEVMAPGAGVYSTYPTNTYATLNGTSMASPHVAGAAALILSKHPNLSASQVRNRLSSTATYLGSSFYYGKGLINVEAAAQ
Consider B2, for which the “concentration at which already toxic to osteoblasts” value in the series with MG63 osteoblasts was “about 0.5 U/mL”. Moreover, the “effect on biofilms comprising Candida albicans (in words)” value in series [6] was “sensitised biofilms”.
